Experimental findings from ChEMBL document CHEMBL2440117, “Improved inhibitory activities against tumor-cell migration and invasion by 15-benzylidene substitution derivatives of andrographolide” (Bioorg Med Chem Lett, 2013) are described below.

Active and inactive are the calls of the source. The calls are words filed in the database; no cut-off is given here.

Test [1] relates to PC-3. The experiment in a line: Antimigratory activity against human PC3 cells at 10 uM after 12 to 48 hrs by wound-healing assay relative to control. It is filed as functional.
The test system of test [2] is 5637. In words: Antimigratory activity against human 5637 cells after 12 to 48 hrs by wound-healing assay. It is filed as functional, cell-based.
In test [3] the test system is 5637. In words: Cytotoxicity against human 5637 cells assessed as growth inhibition at 10 uM after 48 hrs by MTT assay relative to control. It is filed as functional, cell-based. In general terms: Tetrazolium dyes change colour on reduction, which living cells bring about.
The subject of test [4] is SGC-7901. In words: Cytotoxicity against human SGC7901 cells assessed as growth inhibition at 10 uM after 48 hrs by MTT assay relative to control. It is filed as functional, cell-based.
In test [5] the test system is PC-3. The experiment in a line: Cytotoxicity against human PC3 cells assessed as growth inhibition at 10 uM after 48 hrs by MTT assay relative to control. It is filed as functional.
For test [6], the system named is SGC-7901. In words: Antimigratory activity against human SGC7901 cells at 10 uM after 12 to 48 hrs by wound-healing assay relative to control. It is filed as functional.
The test system of test [7] is PC-3. The experiment in a line: Antimigratory activity against human PC3 cells after 12 to 48 hrs by wound-healing assay. It is filed as functional, cell-based.
Test [8] deals with HT-29. In words: Cytotoxicity against human HT-29 cells assessed as growth inhibition at 10 uM after 48 hrs by MTT assay. It is filed as functional, cell-based.
In the next test the test system is ECa-109. The experiment in a line: Cytotoxicity against human EC109 cells assessed as growth inhibition at 10 uM after 48 hrs by MTT assay. It is filed as functional, cell-based.
The nature of test [9]: Antimigratory activity against human EC109 cells at 5 uM after 12 to 48 hrs by wound-healing assay relative to control. It is filed as functional. To be noted: ECa-109.
Test [10] relates to A549. The experiment in a line: Cytotoxicity against human A549 cells assessed as growth inhibition at 10 uM after 48 hrs by MTT assay. It is filed as functional, cell-based.
The subject of test [11] is 5637. The experiment in a line: Antimigratory activity against human 5637 cells at 10 uM after 12 to 48 hrs by wound-healing assay relative to control. It is filed as functional.
The test system of test [12] is A549. The experiment in a line: Antimigratory activity against human A549 cells at 5 uM after 12 to 48 hrs by wound-healing assay relative to control. It is filed as functional.
Test [13] relates to HT-29. In words: Antimigratory activity against human HT-29 cells after 12 to 48 hrs by wound-healing assay. It is filed as functional, cell-based.

As usually defined, the inhibition is the drop in the measured response relative to a control, in per cent. A word on the IC50: it is the concentration that gives 50% inhibition. Take `C=C1CC[C@@H]2[C@](C)(COC(=O)c3cccnc3)[C@H](OC(=O)c3cccnc3)CC[C@@]2(C)[C@@H]1/C=C/C1=CC(=C/c2ccc(Cl)cc2)/OC1=O`: in the test with PC-3 [1], the inhibition result was “inactive”. Also, the concentration for half-maximal inhibition (IC50) with 5637 [2] stood at 8.1 µM. In addition, the “growth inhibition (GI)” value with 5637 [3], in the test on SGC-7901 [4] and in the test with PC-3 [5] was “inactive” in each case. Also, the inhibition at 10 µM with SGC-7901 [6] was determined as 22.3%.

For the compound `C=C1CC[C@@H]2[C@](C)(CO)[C@H](O)CC[C@@]2(C)[C@@H]1/C=C/C1=CC(=C/c2ccccc2)/OC1=O`, the IC50 in the test on PC-3 [7] came out at 13.2 µM; with HT-29 [13], 48.4 µM. In addition, the “growth inhibition (GI)” value in the test with HT-29 [8], in the test on ECa-109, in the test on A549 [10], in the test with 5637 [3], in the test on SGC-7901 [4] and in the test with PC-3 [5] was “inactive” in each case. For the same compound, the inhibition at 5 µM is 45.3% in [9] and 45.1% in the test on A549 [12]. Besides, the inhibition at 10 µM with 5637 [11] is 44.8%; in the test with SGC-7901 [6], 30.3%.
